Results from PMC7072245, “Macromolecular Crowding Increases the Affinity of the PHD of ING4 for the Histone H3K4me3 Mark” (Biomolecules, 2020).
Read-outs that look alike come from different tables or passages of the source. Where no end group is shown, it is not given here. [ ]: non-standard residue; d: D form. Lys(Me3) = C[N+](C)(C)CCCC[C@H](N)C(=O)O; Lys(Me2) = CN(C)CCCC[C@H](N)C(=O)O

What was measured:
PHD of ING4 = target: T1, PHD of ING4 (Homo sapiens, UniProt Q9UNL4); experiment: NMR titration of ING4-PHD with histone H3 peptides (CSP of W237 amide, 1H-15N HSQC); type: binding
T1 construct: we did the titration by NMR on a sample of 10 µM PHD of ING4
Procedure: These contained 50 or 10 µM uniformly -^15N enriched PHD in 20 mM sodium phosphate pH 6.5, 50 mM NaCl, 1 mM perdeuterated dithiotreitol, 5% (v/v) ^2H2O, and 0.01% (w/v) NaN3, plus different concentrations of Ficoll 70. […] Thus, the NMR titrations were completed in less than 24 h. NMR spectra were recorded at 25 °C on a BRUKER Avance III 800 spectrometer equipped with a TCI cryogenically cooled probe. At a concentration of 50 µM PHD, ^1H-^15N Heteronuclear Single Quantum Coherence (HSQC) spectra could be recorded in about 2 h with sufficient quality to measure the chemicals shift perturbations on peptide addition. At 10 µM PHD concentration, HSQC were recorded with only 16 t1 points and a ^15N spectral width of 10 ppm. […] In this way, the full titration of ING4-PHD with the histone peptide could be measured in less than 24 h.
Next, we measured the affinity of the binding in presence of Ficoll, by means of a NMR titration of the PHD with H3K4me3 peptide but in presence of 15% Ficoll (Figure 2). For binding analysis, we used the backbone amide signal of amino acid W237 because it experiences a large CSP upon peptide binding and is well isolated in a region of the spectrum with few other signals. […] This makes it necessary to reduce the protein concentration of the experiment.
On the other hand, the presence of 15% Ficoll 70 lowered the signal to noise ratio of the NMR experiment as signals got broader due to the increased viscosity of sample. So, we had to decrease the protein concentration of the experiment but not so much as to lose the signals in the noise. […] In these conditions, we could record ^1H-^15N HSQC experiments in 2 h and complete the titration in less than 1 day.
Once we got the optimum conditions, we did the titration by NMR on a sample of 10 µM PHD of ING4 in the presence of increasing amounts of H3K4me3 peptide (Figure 3).
Titrations at different percentages of Ficoll (0, 5, and 10 %) were done by NMR in a same manner as the titration at 15% Ficoll.

[1] = target: T2, Plant Homeodomain (PHD) of ING4 (uniformly 15N enriched (NMR samples)); experiment: NMR titration; 10 µM 15N PHD titrated with peptide, 15% Ficoll 70; 20 mM sodium phosphate pH 6.5, 50 mM NaCl, 1 mM DTT, 25 °C; CSP of W237 amide in 1H-15N HSQC, single site fit; conditions: both partners purified
T2 chain: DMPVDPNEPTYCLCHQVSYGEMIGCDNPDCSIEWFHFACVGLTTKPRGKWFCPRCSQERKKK

[2] = target: T2, Plant Homeodomain (PHD) of ING4; experiment: NMR titration; PHD titrated with peptide, 0% Ficoll 70; 20 mM sodium phosphate pH 6.5, 50 mM NaCl, 1 mM DTT, 25 °C; CSP of W237 amide; conditions: both partners purified

Molecule: CNCCCC[C@H](NC(=O)[C@@H](NC(=O)[C@H](CCCNC(=N)N)NC(=O)[C@H](C)N)[C@@H](C)O)C(=O)N[C@@H](CCC(N)=O)C(=O)N[C@H](C(=O)N[C@@H](C)C(=O)N[C@@H](CCCNC(=N)N)C(=O)N[C@@H](CCCCN)C(=O)N[C@@H](CO)C(=O)N[C@H](C(=O)NCC(=O)NCC(=O)N[C@@H](CCCCN)C(=O)N[C@@H](C)C(=O)N[C@@H](Cc1ccc(O)cc1)C(=O)O)[C@@H](C)O)[C@@H](C)O [H3K4me1]
- Kd (PHD of ING4): 12 ± 4 µM

Molecule: C[C@H](N)C(=O)N[C@@H](CCCNC(=N)N)C(=O)N[C@H](C(=O)N[C@@H](CCCCN(C)C)C(=O)N[C@@H](CCC(N)=O)C(=O)N[C@H](C(=O)N[C@@H](C)C(=O)N[C@@H](CCCNC(=N)N)C(=O)N[C@@H](CCCCN)C(=O)N[C@@H](CO)C(=O)N[C@H](C(=O)NCC(=O)NCC(=O)N[C@@H](CCCCN)C(=O)N[C@@H](C)C(=O)N[C@@H](Cc1ccc(O)cc1)C(=O)O)[C@@H](C)O)[C@@H](C)O)[C@@H](C)O [H3K4me2]
- Kd (PHD of ING4): 1.4 ± 0.6 µM

Molecule: C[C@H](N)C(=O)N[C@@H](CCCNC(=N)N)C(=O)N[C@H](C(=O)N[C@@H](CCCC[N+](C)(C)C)C(=O)N[C@@H](CCC(N)=O)C(=O)N[C@H](C(=O)N[C@@H](C)C(=O)N[C@@H](CCCNC(=N)N)C(=O)N[C@@H](CCCCN)C(=O)N[C@@H](CO)C(=O)N[C@H](C(=O)NCC(=O)NCC(=O)N[C@@H](CCCCN)C(=O)N[C@@H](C)C(=O)N[C@@H](Cc1ccc(O)cc1)C(=O)O)[C@@H](C)O)[C@@H](C)O)[C@@H](C)O [H3K4me3]
- Kd (PHD of ING4): 0.4 ± 0.3 µM
- Kd (PHD of ING4; absence of Ficoll (0%), NMR, 20 mM sodium phosphate pH 6.5, 50 mM NaCl, 25 °C, read-out: KD): 3.9 ± 0.7 µM

B1: histone H3 peptide (residues 1-15 plus C-terminal Tyr), unmethylated at lysine 4 (peptide)
peptide: ARTKQTARKSTGGKAY
notes: histone H3 N-terminal tail, residues 1-15; extra Tyr residue at the C-terminus for concentration measurement by UV absorbance; also called H3K4me0; unmethylated histone H3 tail
- Kd [1]: 100 ± 10 µM

B2: histone H3 peptide (residues 1-15 plus C-terminal Tyr) dimethylated at lysine 4 (peptide)
peptide: ART[Lys(Me2)]QTARKSTGGKAY
notes: histone H3 N-terminal tail, residues 1-15; extra Tyr residue at the C-terminus for concentration measurement by UV absorbance; also called H3K4me2
- Kd [1]: 1.4 ± 0.6 µM

B3: histone H3 peptide (residues 1-15 plus C-terminal Tyr) trimethylated at lysine 4 (peptide)
peptide: ART[Lys(Me3)]QTARKSTGGKAY
notes: histone H3 N-terminal tail, residues 1-15; extra Tyr residue at the C-terminus for concentration measurement by UV absorbance; also called H3K4me3; H3K4me3 peptide
- Kd [2]: 3.9 ± 0.7 µM
- Kd [1]: 0.4 ± 0.3 µM
